{
  "source": "patent US4849425A",
  "about": "“Readily absorbable pharmaceutical composition” (Ishihara Sangyo Kaisha Ltd., priority 1985, dated 1989)",
  "key": {"[1]": {"experiment": "Solubility of Compound No. 3 in aqueous cyclodextrin solutions or polyethylene glycol 400 at 25° C. (Test Example 2)", "type": "physicochemical", "procedure": "0.1 μmol of Compound No. 1 or No. 2 was added to 1 ml of an aqueous solution of each cyclodextrin with a concentration of from 0 to 8 mM, and the mixture was shaken at 25° C. for 100 hours. After completion of the shaking, the mixture was filtered through a millipore filter of 0.45 μm to obtain a filtrate.\nSeparation column: As the packing material, octadecylated silica gel was filled in a stainless steel tube having an internal diameter of from 0.39 to 4.6 mm and a length of from 100 to 300 mm.\nColumn temperature: 30° C.\nMobile phase: Mixture of acetonitrile-water (the mixing ratio was adjusted so that the eluting time of the drug becomes from 5 to 10 minutes).\nWave length for detection: 265 nm\n7.5 mg of […]. was added to 1 ml of an aqueous solution of each cyclodextrin at various concentrations or to 1 ml of polyethylene glycol 400, and the solubility of Compound No. 3 at 25° C. was obtained in the same manner as the Test Example b 1."}, "[2]": {"experiment": "Oral capsules, plasma concentration in beagle dogs (Test Example 7)", "type": "in vivo", "conditions": "for Concentration in the plasma: 0", "procedure": "The capsules prepared in Example 3 corresponding to 20 mg/kg of Compound No. 3 were orally administered to three beagle dogs (male: body weight: 5 kg). Then, the blood was periodically sampled from the branchium vein, and the concentration of Compound No. 3 in the plasma was measured. To the control group, a suspension of Compound No. 3 (20 mg/ml) in an aqueous solution containing 0.5% of sodium salt of carboxymethyl cellulose was administered. It is evident that the present invention, the absorbability of Compound No. 3 increased."}, "[3]": {"experiment": "Absorbability through the gut, oral, various dispersing solvents, plasma concentration in rats (Test Example 4)", "type": "in vivo, Wistar male rats", "conditions": "20 mg/kg, rat", "procedure": "20 mg of Compound No. […] 3. The suspension was orally administered by an oral sonde to a group of three Wistar male rats (body weight: 200-250g). The dose of Compound No. 3 was 20 mg/kg rat body weight. Further, Compound No. 3 was likewise suspended in an aqueous solution containing 0.5% of sodium salt of carboxymethyl cellulose, and the suspension was used as the control ( in FIG. 3). After the administration, the blood was periodically sampled, and the plasma was separated. After the removal of protein by acetonitrile, Compound No. 3 in the plasma was quantitatively analyzed by a high speed liquid chromatography as shown in Test Example 1.\nThe changes with time of the concentration of Compound No. 3 in the plasma after the oral administration were studied in the same manner as in Test Example 3 by using an aqueous solution of 10% (weight/volume) Polysolvate 80 (Tween 80, manufactured by Nakayai Kagaku K.K.), 10% (weight/volume) polyoxyethylene hardened caster oil 60 (manufactured by Nikko Chemical K.K.), 100% polyethylene glycol 400 or 50% (weight/volume) dimethyl β-type cyclodextrin, as the dispersing solvent for Compound No. 3, and an aqueous solution of 0.5% (weight/volume) sodium salt of carboxymethyl cellulose, as the control. […]"}, "L-1210 leukemia cells": {"test_system": "L-1210 leukemia cells", "experiment": "Antitumour activity against intraperitoneally inoculated L-1210 leukemia, oral administration (Test Example 9)", "type": "in vivo, BDF1 mice", "from_the_text": "The pharmacological activities of the pharmaceutical compositions of the present invention were studied.\nTo BDF1 mice (male, […]), L-1210 leukemia cells were intraperitoneally inoculated in an amount of 1×10^6 cells/mouse. One day later and 4 days later, a test drug was orally administered. […]"}, "[4]": {"conditions": "dog, plasma, po, 20 mg/kg, control, suspension in 0.5% sodium salt of carboxymethyl cellulose"}, "[5]": {"conditions": "dog, plasma, po, 20 mg/kg, polyethylene glycol 400 capsules of Example 3, oral 20 mg/kg"}},
  "data": [
    {"compound": "O=C(NC(=O)c1ccccc1[N+](=O)[O-])Nc1ccc(Oc2ncc(Br)cn2)c(Cl)c1", "note": "[Compound No. 3, N-(2-nitrobenzoyl)-N'-[4-(5-bromo-2-pyrimidinyloxy)-3-chlorophenyl]urea]", "values": [
      {"measurement": "solubility", "setting": "[1]; aqueous dimethyl α-type cyclodextrin, dimethyl α-type cyclodextrin 17.5 mg/ml, aqueous", "value": 0.294, "unit": "µg/mL"},
      {"measurement": "solubility", "setting": "[1]; aqueous dimethyl β-type cyclodextrin, dimethyl β-type cyclodextrin 20.0 mg/ml, aqueous", "value": 24.1, "unit": "µg/mL"},
      {"measurement": "solubility", "setting": "[1]; aqueous dimethyl β-type cyclodextrin, dimethyl β-type cyclodextrin 140 mg/ml, aqueous", "value": 5180, "unit": "µg/mL"},
      {"measurement": "solubility", "setting": "[1]; aqueous dimethyl β-type cyclodextrin, dimethyl β-type cyclodextrin 500 mg/ml, aqueous", "value": 7440, "unit": "µg/mL"},
      {"measurement": "solubility", "setting": "[1]; aqueous solution, no additives, aqueous solution containing no additives", "value": 0.024, "unit": "µg/mL"},
      {"measurement": "solubility", "setting": "[1]; aqueous trimethyl β-type cyclodextrin, trimethyl β-type cyclodextrin 21.4 mg/ml, aqueous", "value": 1, "unit": "µg/mL"},
      {"measurement": "solubility", "setting": "[1]; aqueous trimethyl β-type cyclodextrin, trimethyl β-type cyclodextrin 100 mg/ml, aqueous", "value": 13.4, "unit": "µg/mL"},
      {"measurement": "solubility", "setting": "[1]; aqueous trimethyl β-type cyclodextrin, trimethyl β-type cyclodextrin 200 mg/ml, aqueous", "value": 30.4, "unit": "µg/mL"},
      {"measurement": "solubility", "setting": "[1]; aqueous α-type cyclodextrin 14.6 mg/ml, α-type cyclodextrin 14.6 mg/ml, aqueous", "value": 0.164, "unit": "µg/mL"},
      {"measurement": "solubility", "setting": "[1]; aqueous β-type cyclodextrin 17.0 mg/ml, β-type cyclodextrin 17.0 mg/ml, aqueous", "value": 1.64, "unit": "µg/mL"},
      {"measurement": "solubility", "setting": "[1]; polyethylene glycol 400, organic solvent or mixture, polyethylene glycol 400, 100%", "value": 7500, "unit": "µg/mL"},
      {"measurement": "Concentration in the plasma", "setting": "[2]; control, suspension in 0.5% sodium salt of carboxymethyl cellulose, oral", "value": 0, "unit": "ng/mL"},
      {"measurement": "concentration at 1 h", "setting": "[2]; [4]", "value": 70, "unit": "ng/mL"},
      {"measurement": "concentration at 2 h", "setting": "[2]; [4]", "value": 100, "unit": "ng/mL"},
      {"measurement": "concentration at 1 h", "setting": "[2]; [5]", "value": 610, "unit": "ng/mL"},
      {"measurement": "concentration at 2 h", "setting": "[2]; [5]", "value": 1120, "unit": "ng/mL"},
      {"measurement": "concentration at 4 h", "setting": "[2]; dog, plasma, po, 20 mg/kg, polyethylene glycol 400 capsules of Example 3, oral 20 mg/kg, 4 hrs", "value": 1110, "unit": "ng/mL"},
      {"measurement": "absorbability", "setting": "[2]; polyethylene glycol 400 capsules of Example 3, oral", "value": "increased"},
      {"measurement": "Concentration in the plasma", "setting": "[2]; polyethylene glycol 400 capsules of Example 3, oral 20 mg/kg", "value": 0, "unit": "ng/mL"},
      {"measurement": "concentration in the plasma as compared with the control", "setting": "[3]; 50% (w/v) dimethyl β-type cyclodextrin vs 0.5% sodium carboxymethyl cellulose", "value": "about 7.5 times"},
      {"measurement": "concentration in the plasma as compared with the control", "setting": "[3]; 100% polyethylene glycol 400 vs 0.5% sodium carboxymethyl cellulose", "value": "about 5 times"},
      {"measurement": "antitumour activities", "setting": "L-1210 leukemia cells; only when administered together with the substance specified in the invention", "value": "distinctly observed"},
      {"measurement": "T/C", "setting": "L-1210 leukemia cells; polyethylene glycol 400 + substrate + Compound No. 3, 6.25 mg/kg", "value": 120, "unit": "%"},
      {"measurement": "T/C", "setting": "L-1210 leukemia cells; polyethylene glycol 400 + substrate + Compound No. 3, 12.5 mg/kg", "value": 134, "unit": "%"},
      {"measurement": "T/C", "setting": "L-1210 leukemia cells; polyethylene glycol 400 + substrate + Compound No. 3, 25 mg/kg", "value": 183, "unit": "%"},
      {"measurement": "T/C", "setting": "L-1210 leukemia cells; polyethylene glycol 400 + substrate + Compound No. 3, 50 mg/kg", "value": 95, "unit": "%"},
      {"measurement": "antitumour activities", "setting": "L-1210 leukemia cells; polyethylene glycol 400 absent", "value": "no antitumour activities were observed"},
      {"measurement": "T/C", "setting": "L-1210 leukemia cells; substrate + Compound No. 3 (no polyethylene glycol 400), 6.25 mg/kg", "value": 102, "unit": "%"},
      {"measurement": "T/C", "setting": "L-1210 leukemia cells; substrate + Compound No. 3 (no polyethylene glycol 400), 12.5 mg/kg", "value": 102, "unit": "%"},
      {"measurement": "T/C", "setting": "L-1210 leukemia cells; substrate + Compound No. 3 (no polyethylene glycol 400), 25 mg/kg", "value": 101, "unit": "%"},
      {"measurement": "T/C", "setting": "L-1210 leukemia cells; substrate + Compound No. 3 (no polyethylene glycol 400), 50 mg/kg", "value": 103, "unit": "%"}
    ]}
  ]
}
